BigSolDB 2.1

NCCCCCCN
solubility (mole fraction)
Settings | in 1,4-dioxane | in cyclohexane | in isobutanol | in n-butanol | in n-hexane | in n-propanol | in toluene
278.15 K | – | 0.0071 | 0.193 | 0.35 | 0.0103 | 0.315 | 0.132
283.15 K | 0.135 | 0.0092 | 0.236 | 0.389 | 0.0149 | 0.354 | 0.161
288.15 K | 0.194 | 0.0126 | 0.288 | 0.448 | 0.018 | 0.391 | 0.209
293.15 K | 0.267 | 0.0187 | 0.351 | 0.508 | 0.0268 | 0.431 | 0.259
298.15 K | 0.348 | 0.0309 | 0.427 | 0.584 | 0.0449 | 0.485 | 0.334
303.15 K | 0.467 | 0.053 | 0.521 | 0.652 | 0.0729 | 0.552 | 0.434
